ChEMBL document CHEMBL6109103, “Dodecapeptides derived from human cathelicidin with potent activity against carbapenem-resistant Acinetobacter baumannii” (Eur J Med Chem, 2025)
Residues, ends and D or L forms follow the SMILES beside them.

What was measured:
Type in all cases: organism-based
Details in all cases: in vivo, 72 h, time 3 day
[1] = Toxicity in BALB/c mouse assessed as liver damage at 16 mg/kg, ip measured for 3 days by H and E staining based analysis
[2] = Toxicity in BALB/c mouse assessed as spleen damage at 16 mg/kg, ip measured for 3 days by H and E staining based analysis
[3] = Toxicity in BALB/c mouse assessed as lung damage at 16 mg/kg, ip measured for 3 days by H and E staining based analysis
[4] = Toxicity in BALB/c mouse assessed as heart damage at 16 mg/kg, ip measured for 3 days by H and E staining based analysis

Measured: Activity

CC(C)CCCCC(=O)N[C@@H](CCN)C(=O)N[C@H](C(=O)N[C@@H](CCN)C(=O)N[C@H]1CCNC(=O)[C@H]([C@@H](C)O)NC(=O)[C@H](CCN)NC(=O)[C@H](CCN)NC(=O)[C@H](CC(C)C)NC(=O)[C@@H](Cc2ccccc2)NC(=O)[C@H](CCN)NC1=O)[C@@H](C)O.CC[C@H](C)CCCCC(=O)N[C@@H](CCN)C(=O)N[C@H](C(=O)N[C@@H](CCN)C(=O)N[C@H]1CCNC(=O)[C@H]([C@@H](C)O)NC(=O)[C@H](CCN)NC(=O)[C@H](CCN)NC(=O)[C@H](CC(C)C)NC(=O)[C@@H](Cc2ccccc2)NC(=O)[C@H](CCN)NC1=O)[C@@H](C)O (HELM PEPTIDE1{[CC[C@H](C)CCCCC(=O)[*:2]].[Dab].T.[Dab].[Dab].[Dab].[dF].L.[Dab].[Dab].T}$PEPTIDE1,PEPTIDE1,5:R3-11:R2$$$V2.0)
Non-toxic: all assays above
